Experiments:
[1] = target: sGC α1/β1 heterodimer (Homo sapiens (Human), UniProt Q02108+Q02153); experiment: Cell-based sGC functional assay (CASA assay), cGMP by HTRF; conditions: CHO-K1/sGC cells; for Emax: CHO-K1, cGMP production as percentage of maximum of compound A (set to 100%), read-out: % Activation; for EC50: inflection point of cGMP production, 4P fit, read-out: IP
Method in brief: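 CHO-K1 cells stably expressing human sGC α1/β1, with 0.5 mM IBMX, pre-incubated ±1 μM DETA-NO 30 min at 25° C, then compound 1 hr at 37° C (2.5% DMSO). cGMP by HTRF; activation as % of reference activator maximum, 4P fit giving inflection point and maximum […].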

[2] = target: human recombinant sGC enzyme (Homo sapiens (Human), UniProt Q02108+Q02153); experiment: SEC competition binding assay with [3H] Compound B radioligand; conditions: displacement of 1.6 nM [3H] Compound B, 24 h at 37° C.
Method in brief: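 Recombinant human sGC incubated with 1.6 nM [3H] Compound B and test compounds for 24 h at 37° C. Buffer: 50 mM triethanolamine pH 7.4, 3 mM MgCl2, 0.025% BSA, 2 mM DTT, 300 μM DETA/NO, 400 μM GTP, 1% DMSO. Bound ligand separated by gel filtration and counted by scintillation; non-specific binding with 1 μM Compound B; Ki from one-site fit.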

Q: How did the Emax [1] turn out when `CC1(c2cc(O)c(C(F)(F)F)cn2)C(=O)Nc2nc(-c3cn4ccnc4c(Cc4cccc(F)c4)n3)nc(N)c21` (stereo not drawn) [Example 145-B, 4-amino-2-(8-{3-fluorobenzyl}imidazo-[1,2-a]pyrazin-6-yl)-5-(4-hydroxy-5-(trifluoromethyl)pyridin-2-yl)-5-methyl-5,7-dihydro-6H-pyrrolo-[2,3-d]pyrimidin-6-one] was run?
A: 91%

Q: And the EC50 [1]?
A: 2440 nM

Q: What about the Ki [2] of the same compound?
A: 0.416 nM

Q: How did the Emax [1] turn out when `CC(C)CCc1nc(-c2nc(N)c3c(n2)NC(=O)C3(C)c2ccc(O)cc2)cn2ccnc12` (stereo not drawn) [Example 58-B, 4-Amino-5-(4-hydroxyphenyl)-2-(8-isopentylimidazo[1,2-a]pyrazin-6-yl)-5-methyl-5,7-dihydro-6H-pyrrolo[2,3-d]pyrimidin-6-one] was run?
A: 121%

Q: What about the EC50 [1] of the same compound?
A: 164 nM

Q: And the Ki [2]?
A: 1.54 nM

Q: Which Emax [1] does the source give for `CC1(c2cccc(O)c2)C(=O)Nc2nc(-c3cn4ccnc4c(Cc4ccc(F)cc4F)n3)nc(N)c21` (stereo not drawn) [Example 34-B, 4-Amino-2-{8-[(2,4-difluorophenyl)methyl]imidazo[1,2-a]pyrazin-6-yl}-5-(3-hydroxyphenyl)-5-methyl-5,7-dihydro-6H-pyrrolo[2,3-d]pyrimidin-6-one] here?
A: 111%

Q: And the EC50 [1]?
A: 243 nM

Q: And the Ki [2]?
A: 0.317 nM

Q: Which results are given for `CC1(c2ccc(F)c(O)c2)C(=O)Nc2nc(-c3cn4ncnc4c(CCC(F)(F)C(F)(F)F)n3)nc(N)c21` (racemic) [Example 114-B, 4-Amino-5-(4-fluoro-3-hydroxyphenyl)-5-methyl-2-(8-(3,3,4,4,4-pentafluorobutyl)-[1,2,4]-triazolo[1,5-a]pyrazin-6-yl)-5,7-dihydro-6H-pyrrolo(2,3-d]pyrimidin-6-one]?
A: Emax [1]: 112%; EC50 [1]: 137 nM; Ki [2]: 4.95 nM

Q: Which results are given for `CC1(c2ccc(Cl)c(O)c2)C(=O)Nc2nc(-c3cn4ccnc4c(Cc4c(F)cccc4F)n3)nc(N)c21` (stereo not drawn) [Example 90-A, 4-Amino-5-(4-chloro-3-hydroxyphenyl)-2-{8-[(2,6-difluorophenyl)methyl]imidazo[1,2-a]pyrazin-6-yl}-5-methyl-5,7-dihydro-6H-pyrrolo[2,3-d]pyrimidin-6-one]?
A: Emax [1]: 138%; EC50 [1]: 94 nM; Ki [2]: 2.43 nM

Q: `CCCCc1nc(-c2nc(N)c3c(n2)NC(=O)C3(C)c2ccc(O)c(Cl)c2)cn2ccnc12` (stereo not drawn) [Example 75-B, 4-Amino-2-(8-butylimidazo[1,2-a]pyrazin-6-yl)-5-(3-chloro-4-hydroxyphenyl)-5-methyl-5,7-dihydro-6H-pyrrolo[2,3-d]pyrimidin-6-one] was tested. Which Emax [1] did it give?
A: 153%

Q: And the EC50 [1]?
A: 770 nM

Q: And the Ki [2]?
A: 6.55 nM

Q: For `CCCCc1nc(-c2nc(N)c3c(n2)NC(=O)C3(C)c2ccc(O)c(F)c2)cn2ncnc12` (stereo not drawn) [Example 71-B, 4-Amino-2-(8-butyl-[1,2,4]triazolo[1,5-a]pyrazin-6-yl)-5-(3-fluoro-4-hydroxyphenyl)-5-methyl-5,7-dihydro-6H-pyrrolo[2,3-d]pyrimidin-6-one], which Emax [1] is on record?
A: 81%

Q: What about the EC50 [1] of the same compound?
A: 30 nM

Q: What about the Ki [2] of the same compound?
A: 4.08 nM

Q: `CC1(c2ccc(Cl)c(O)c2)C(=O)Nc2nc(-c3cn4ccnc4c(Cc4ccc(F)c(F)c4)n3)nc(N)c21` (stereo not drawn) [Example 20-A, 4-Amino-5-(4-chloro-3-hydroxyphenyl)-2-{8-[(3,4-difluorophenyl)methyl]imidazo[1,2-a]pyrazin-6-yl}-5-methyl-5,7-dihydro-6H-pyrrolo[2,3-d]pyrimidin-6-one] was tested. Which Emax [1] did it give?
A: 130%

Q: And the EC50 [1]?
A: 127 nM

Q: And the Ki [2]?
A: 0.173 nM

Q: Which results are given for `CC1(c2ccc(F)c(O)c2)C(=O)Nc2nc(-c3cn4ccnc4c(Cc4ccc(F)cc4)n3)nc(N)c21` (stereo not drawn) [Example 37-B, 4-Amino-5-(4-fluoro-3-hydroxyphenyl)-2-{8-[(4-fluorophenyl)methyl]imidazo[1,2-a]pyrazin-6-yl}-5-methyl-5,7-dihydro-6H-pyrrolo[2,3-d]pyrimidin-6-one]?
A: Emax [1]: 117%; EC50 [1]: 69 nM; Ki [2]: 0.427 nM

Q: How did the Emax [1] turn out when `CC1(c2ccc(O)c(Cl)c2)C(=O)Nc2nc(-c3cn4ccnc4c(CC4CCCCC4)n3)nc(N)c21` (stereo not drawn) [Example 89-B, 4-Amino-5-(3-chloro-4-hydroxyphenyl)-2-(8-(cyclohexylmethyl)imidazo[1,2-a]pyrazin-6-yl)-5-methyl-5,7-dihydro-6H-pyrrolo[2,3-d]pyrimidin-6-one] was run?
A: 127%

Q: What about the EC50 [1] of the same compound?
A: 809 nM

Q: What about the Ki [2] of the same compound?
A: 0.823 nM

Q: How did the Emax [1] turn out when `CC1(c2cccc(O)c2)C(=O)Nc2nc(-c3cn4ccnc4c(Cc4ccc(Cl)cc4)n3)nc(N)c21` (stereo not drawn) [Example 56-B, 4-Amino-2-{8-[(4-chlorophenyl)methyl]imidazo[1,2-a]pyrazin-6-yl}-5-(3-hydroxyphenyl)-5-methyl-5,7-dihydro-6H-pyrrolo[2,3-d]pyrimidin-6-one] was run?
A: 101%

Q: And the EC50 [1]?
A: 627 nM

Q: And the Ki [2]?
A: 1.24 nM

Q: How did the Emax [1] turn out when `CC1(c2ccc(O)cc2)C(=O)Nc2nc(-c3cn4ccnc4c(CCC4CCCCC4)n3)nc(N)c21` (stereo not drawn) [Example 85-B, 4-Amino-2-(8-(2-cyclohexylethyl)imidazo[1,2-a]pyrazin-6-yl)-5-(4-hydroxyphenyl)-5-methyl-5,7-dihydro-6H-pyrrolo[2,3-d]pyrimidin-6-one] was run?
A: 130%

Q: And the EC50 [1]?
A: 605 nM

Q: And the Ki [2]?
A: 4.82 nM

Q: `CC1(c2cc(O)c(F)c(F)c2)C(=O)Nc2nc(-c3cn4ccnc4c(Cc4ccccc4F)n3)nc(N)c21` (stereo not drawn) [Example 9-B, 4-Amino-5-(3,4-difluoro-5-hydroxyphenyl)-2-{8-[(2-fluorophenyl)methyl]imidazo[1,2-a]pyrazin-6-yl}-5-methyl-5,7-dihydro-6H-pyrrolo[2,3-d]pyrimidin-6-one] was tested. Which Emax [1] did it give?
A: 85%

Q: What about the EC50 [1] of the same compound?
A: 1040 nM

Q: And the Ki [2]?
A: 0.126 nM

Q: For `CC(C)CCc1nc(-c2nc(N)c3c(n2)NC(=O)C3(C)c2cc(O)ccn2)cn2ncnc12` (stereo not drawn) [Example 119-B, 4-Amino-5-(4-hydroxypyridin-2-yl)-2-(8-isopentyl-[1,2,4]-triazolo[1,5-a]pyrazin-6-yl)-5-methyl-5,7-dihydro-6H-pyrrolo-[2,3-d]pyrimidin-6-one], which Emax [1] is on record?
A: 75%

Q: What about the EC50 [1] of the same compound?
A: 681 nM

Q: And the Ki [2]?
A: 2.76 nM

Q: With `CC1(c2nccc(O)c2Cl)C(=O)Nc2nc(-c3cn4ccnc4c(Cc4cc(F)cc(F)c4)n3)nc(N)c21` (stereo not drawn) [Example 111-B, 4-Amino-5-(3-chloro-4-hydroxypyridin-2-yl)-2-{8-[(3,5-difluorophenyl)-methyl]imidazo[1,2-a]-pyrazin-6-yl}-5-methyl-5,7-dihydro-6H-pyrrolo-[2,3-d]pyrimidin-6-one] as the compound, how does the Emax [1] read?
A: 86%

Q: What about the EC50 [1] of the same compound?
A: 1540 nM

Q: What about the Ki [2] of the same compound?
A: 1.74 nM

Q: Which Emax [1] does the source give for `CC1(c2cc(O)c(Cl)cn2)C(=O)Nc2nc(-c3cn4ccnc4c(Cc4cc(F)cc(F)c4)n3)nc(N)c21` (stereo not drawn) [Example 40-B, 4-Amino-5-(5-chloro-4-hydroxypyridin-2-yl)-2-{8-[(3,5-difluorophenyl)methyl]imidazo[1,2-a]pyrazin-6-yl}-5-methyl-5,7-dihydro-6H-pyrrolo[2,3-d]pyrimidin-6-one] here?
A: 88%

Q: And the EC50 [1]?
A: 368 nM

Q: And the Ki [2]?
A: 0.479 nM

Q: With `CC1(c2ccc(O)c(F)c2)C(=O)Nc2nc(-c3cn4ncnc4c(Cc4ccc(F)cc4)n3)nc(N)c21` (stereo not drawn) [Example 41-B, 4-Amino-5-(3-fluoro-4-hydroxyphenyl)-2-{8-[(4-fluorophenyl)methyl]-[1,2,4]triazolo[1,5-a]pyrazin-6-yl}-5-methyl-5,7-dihydro-6H-pyrrolo[2,3-d]pyrimidin-6-one] as the compound, how does the Emax [1] read?
A: 136%

Q: And the EC50 [1]?
A: 588 nM

Q: And the Ki [2]?
A: 0.49 nM

Q: Which results are given for `CC1(c2ccc(O)c(F)c2)C(=O)Nc2nc(-c3cn4ccnc4c(Cc4ccccc4)n3)nc(N)c21` (stereo not drawn) [Example 128-B, 4-Amino-2-(8-benzyl-imidazo[1,2-a]pyrazin-6-yl)-5-(3-fluoro-4-hydroxyphenyl)-5-methyl-5,7-dihydro-6H-pyrrolo[2,3-d]-pyrimidin-6-one]?
A: Emax [1]: 137%; EC50 [1]: 1200 nM; Ki [2]: 0.646 nM

Q: How did the Emax [1] turn out when `CC1(c2ccc(Cl)c(O)c2)C(=O)Nc2nc(-c3cn4ncnc4c(CCCCF)n3)nc(N)c21` (stereo not drawn) [Example 106-A, 4-Amino-5-(4-chloro-3-hydroxyphenyl)-2-(8-(4-fluorobutyl)-[1,2,4]triazolo[1,5-a]pyrazin-6-yl)-5-methyl-5,7-dihydro-6H-pyrrolo[2,3-d]pyrimidin-6-one] was run?
A: 81%

Q: What about the EC50 [1] of the same compound?
A: 902 nM

Q: And the Ki [2]?
A: 1.84 nM

Q: Which results are given for `CC1(c2ccc(Cl)c(O)c2Cl)C(=O)Nc2nc(-c3cn4ncnc4c(CC4CCCCC4)n3)nc(N)c21` (stereo not drawn) [Example 67-A, 4-Amino-2-(8-(cyclohexylmethyl)-[1,2,4]triazolo[1,5-a]pyrazin-6-yl)-5-(2,4-dichloro-3-hydroxyphenyl)-5-methyl-5,7-dihydro-6H-pyrrolo[2,3-d]pyrimidin-6-one]?
A: Emax [1]: 134%; EC50 [1]: 728 nM; Ki [2]: 2.65 nM

Q: Which Emax [1] does the source give for `CC1(c2cc(O)c(Cl)cn2)C(=O)Nc2nc(-c3cn4ncnc4c(Cc4ccccc4F)n3)nc(N)c21` (stereo not drawn) [Example 148-B, 4-amino-5-(5-chloro-4-hydroxypyridin-2-yl)-2-{8-(2-fluorobenzyl)-[1,2,4]triazolo[1,5-a]-pyrazin-6-yl}-5-methyl-5,7-dihydro-6H-pyrrolo-[2,3-c]pyrimidin-6-one] here?
A: 105%

Q: What about the EC50 [1] of the same compound?
A: 242 nM

Q: And the Ki [2]?
A: 0.261 nM

Q: For `CC1(c2cc(O)c(C#N)c(Cl)c2)C(=O)Nc2nc(-c3cn4ncnc4c(CC4CCCCC4)n3)nc(N)c21` (stereo not drawn) [Example 150-A, 4-(4-amino-2-{8-(cyclohexylmethyl)-[1,2,4]triazolo[1,5-a]-pyrazin-6-yl}-5-methyl-6-oxo-6,7-dihydro-5H-pyrrolo-[2,3-d]pyrimidin-5-yl)-2-chloro-6-hydroxy-benzonitrile], which Emax [1] is on record?
A: 96%

Q: What about the EC50 [1] of the same compound?
A: 4120 nM

Q: And the Ki [2]?
A: 0.989 nM

Reference: patent US10780092B2, “Fused pyrazine derivatives useful as soluble guanylate cyclase stimulators” (Merck Sharp & Dohme Corp., priority 2016, dated 2020)
